Values quoted from earlier work, collected in US5559121A, “Rapamycin formulations for oral administration” (American Home Products Corporation, priority 1995, dated 1996).

Experiments:
[1] = FASEB 3, 3411 (1989) and others
tumor = conditions: U.S. Pat. No. 4,885,171 (alone); U.S. Pat. No. 4,401,653 (with picibanil)
thymocyte proliferation = conditions: in vitro
adjuvant arthritis = conditions: Martel 1977
[2] = tested on: experimental allergic encephalomyelitis; conditions: Martel 1977
allograft rejection = conditions: Calne 1989; Morris and Meiser 1989
[3] = tested on: smooth muscle cell proliferation and intimal thickening; conditions: Morris 1992
[4] = tested on: insulin dependent diabetes mellitus; conditions: Fifth Int. Conf. Inflamm. Res. Assoc. 121 (1990)
[5] = in vivo
IgE-like antibodies = conditions: Martel 1977

Row | Compound | immunosuppressive effects [1] | antitumor activity (tumor) | inhibition of thymocyte proliferation (thymocyte proliferation) | effectiveness in adjuvant arthritis model (adjuvant arthritis) | effectiveness in experimental allergic encephalomyelitis model [2] | inhibiting rejection in vivo in allograft transplantation (allograft rejection) | preventing or treating smooth muscle cell proliferation and intimal thickening following vascular injury [3] | effect on growth of Microsporum gypseum (Microsporum gypseum) | preventing or treating insulin dependent diabetes mellitus [4] | immunosuppressive, antifungal and antiinflammatory activity [5] | inhibition of the formation of IgE-like antibodies (IgE-like antibodies) | effect on growth of Candida albicans (Candida albicans)
1 | C=CC[C@@H]1/C=C(\C)C[C@H](C)C[C@H](OC)[C@H]2O[C@@](O)(C(=O)C(=O)N3CCCC[C@H]3C(=O)O[C@H](/C(C)=C/[C@@H]3CC[C@@H](O)[C@H](OC)C3)[C@H](C)[C@@H](O)CC1=O)[C@H](C)C[C@@H]2OC [FK-506] | effective as immunosuppressive agents |  |  |  |  |  |  |  |  |  |  | 
2 | CO[C@H]1C[C@@H]2CC[C@@H](C)[C@@](O)(O2)C(=O)C(=O)N2CCCC[C@H]2C(=O)O[C@H]([C@H](C)C[C@@H]2CC[C@@H](O)[C@H](OC)C2)CC(=O)[C@H](C)/C=C(\C)[C@@H](O)[C@@H](OC)C(=O)[C@H](C)C[C@H](C)/C=C/C=C/C=C/1C [Rapamycin, rapamycin] | immunosuppressive effects | antitumor activity | inhibit thymocyte proliferation in vitro | effective | effective | effectiveness of rapamycin in inhibiting rejection in vivo | useful in preventing or treating | adversely affects the growth | useful in preventing or treating | immunosuppressive, antifungal and antiinflammatory activity in vivo | effectively inhibited the formation of IgE-like antibodies | adversely affects the growth
